Measurements as given in patent publication EP0172917A1, “AGENTS FOR TREATING IMMUNODEFICIENCY, METHOD FOR TREATING THEM, AND USE THEREOF” (Yoshitomi Pharmaceutical Industries, Ltd., priority 1984, dated 1985).

Columns and labels:
[1] = tested on: thymus-rossete forming cells (RFC); assay: Restorative effect on reduced immune response: thymus RFC in cyclophosphamide-pretreated mice; assay type: in vivo, BALB/c mice; settings: for Ratio (%) of RFC (mean ± standard error): BALB/c mice; for % decrease: RFC ratio vs control
Description: (§1) Six week-old female C57BL/6 mice were immunized with the intraperitoneal administration of 5 x 10^8 sheep red blood cells. […] On the 4th day after immunization, the numbers of thymus-rossete forming cells (RFC) in mice were assessed by the method of Bach et al [Cellular Immunology, vol. 3, p. […] Viable thymus lymphocytes which attached to four or more sheep red blood cells were determined as RFC. In control group, 0.5% methylcellulose solution was orally administered into mice.
The same procedures as shown in Experiment 1 were performed except that six week-old female BALB/c mice were immunized with 5 x 10^8 sheep red blood cells and 20 mg/kg cyclophosphamide was orally administered to mice the day before and on immunization.

[2] = tested on: peritoneal macrophages; assay: Stimulative effect on phagocytosis of macrophages; assay type: cell-based, rats; settings: rat peritoneal macrophages
Description: (§2) Effect of Compound (I) on phagocytosis was examined using rat peritoneal leukocytes according to the method of Stossel et al described in Journal of Clinical Investigation, vol. 51, p. 615 (1972).
Casein sodium was injected intraperitoneally into rats. Three days later, peritoneal macrophages were harvested. Phagocytosis was assessed by the same procedures as shown in Experiment 3.

[3] = tested on: MeHSA-induced DTH; assay: Immunosuppressive effect: MeHSA-induced DTH in higher responder strain; assay type: in vivo, BALB/c mice; settings: for DTH (mm) (mean ± standard error): BALB/c mice, control 0.96±0.09; for % inhibition: DTH vs control
Description: (§3) Eight week-old female C57BL/6 mice were injected subcutaneously in the back with 0.1 ml of a 0.25% methylated human serum albumin (hereinafter referred to as MeHSA). Compound (I) was administered orally for 4 consecutive days from the day of the sensitization. One hour after the last administration of Compound (I), 0.025 ml of a 0.1% MeHSA solution was injected subcutaneously on the left hind^paw. The thickness of footpad was measured the 24 hours after the injection using a dissecting microscope by the method of Baba et al [Acta Pathology Japan, vol. 27, p. 165 (1977)]. The difference between the thickness of footpad before and after the injection of MeHSA was expressed as the delayed type hypersensitivity (hereinafter referred to as DTH).
Effect of Compound (I) on the MeHSA-induced DTH was examined in 10 week-old female BALB/c mice, higher responder strain to the MeHSA-induced DTH, by the same procedures as described in Experiment 5.

[4] = tested on: male dd-strain mice; assay: Acute toxicity in mice (LD50); assay type: in vivo; settings: 10080 min
Description: (§4) Compound (I) was administered orally or intraperitoneally to groups of 8 male Wistar rats weighing about 200 g. After one week, acute toxicity (LD50 value) was determined by Probit method.
LD50 values of Compound (I) in groups of 10 male dd-strain mice weighing 20-25 g were also determined.

[5] = tested on: rat peritoneal leukocytes; assay: Stimulative effect on phagocytosis of leukocytes; assay type: cell-based
Description: as §2

[6] = tested on: thymus-rossete forming cells (RFC); assay: Stimulative effect on immune response: thymus rosette forming cells after sheep red blood cell immunization; assay type: in vivo, C57BL/6 mice; settings: for Ratio (%) of RFC (mean ± standard error): C57BL/6 mice, control 1.06±0.31; for % increase: RFC ratio vs control
Description: as §1

[7] = tested on: male Wistar rats; assay: Acute toxicity in rats (LD50, Probit method); assay type: in vivo; settings: after one week, 10080 min
Description: as §4

[8] = tested on: natural thymotoxic autoantibody; assay: Inhibitory effect on the production of autoantibody (NTA); assay type: in vivo, NZB/W F1 mice; settings: 30 mg/kg orally three times every week
Description: To 4 week-old female NZB/W F, mice was orally administered Compound (I) three times every week and, at 7 week-old mice blood was gathered from the eyegrounds and the serum was separated. The detection of natural thymotoxic autoantibody (hereinafter referred to as NTA) was performed by the method of Takeichi et al [Cellular Immunology, vol. 60, p. 181 (1981)].

[9] = tested on: MeHSA-induced DTH; assay: Stimulative effect on cell-mediated immunity: MeHSA-induced delayed type hypersensitivity, footpad thickness; assay type: in vivo, C57BL/6 mice; settings: for DTH (mm) (mean ± standard error): C57BL/6 mice, control 0.21±0.02; for % increase: DTH vs control
Description: as §3

[10] = tested on: spontaneous rosette forming cells; assay: Stimulative effect on reduced cell-mediated immunity: spontaneous rosette forming cells in thymus of SHR; assay type: in vivo, spontaneous hypertensive rats; settings: for Ratio (%) of S-RFC (mean ± standard error): SHR, control 46.7±2.9; for % increase: S-RFC ratio vs control
Description: Twenty-four hours after the last administration, thymus was removed and cell suspension was prepared. The numbers of spontaneous rosette forming cells (hereinafter referred to as S-RFC) were measured the method of Takeichi and Boone [Cellular Immunology, vol. 27, p.

CCN(CC)CCN1CCC2(CC1)SCC(=O)N2c1ccccc1.Cl.Cl.O [Compound (I), 8-(2-diethylaminoethyl)-3-oxo-4-phenyl-l-thia-4,8-diazaspiro-[4.5]decane dihydrochloride monohydrate]
Ratio (%) of RFC (mean ± standard error) ([1]; Compound (I) 10 mg/kg orally with cyclophosphamide 20 mg/kg): 1.78±0.80%
Ratio (%) of RFC (mean ± standard error) ([1]; Compound (I) 30 mg/kg orally with cyclophosphamide 20 mg/kg): 3.86±0.52 %
Ratio (%) of RFC (mean ± standard error) ([1]; Compound (I) 100 mg/kg orally with cyclophosphamide 20 mg/kg): 5.26±0.64 %
% decrease ([1]; Compound (I) 10 mg/kg with cyclophosphamide 20 mg/kg): 74%
% decrease ([1]; Compound (I) 30 mg/kg with cyclophosphamide 20 mg/kg): 43%
% decrease ([1]; Compound (I) 100 mg/kg with cyclophosphamide 20 mg/kg): 23%
% increase of phagocytosis ([2]; 10 µM): 12.5%
% increase of phagocytosis ([2]; 100 µM): 30.6%
DTH (mm) (mean ± standard error) ([3]; 3 mg/kg orally): 0.91±0.04 mm
DTH (mm) (mean ± standard error) ([3]; 30 mg/kg orally): 0.77±0.03 mm
DTH (mm) (mean ± standard error) ([3]; 300 mg/kg orally): 0.71±0.04 mm
% inhibition ([3]; 3 mg/kg orally): 5%
% inhibition ([3]; 30 mg/kg orally): 20%
% inhibition ([3]; 300 mg/kg orally): 36%
LD50 ([4]; intraperitoneal): 474 mg/kg
LD50 ([4]; oral): 1,841 mg/kg
% increase of phagocytosis ([5]; 10 μM): 27.1%
% increase of phagocytosis ([5]; 100 μM): 61.4%
Ratio (%) of RFC (mean ± standard error) ([6]; 3 mg/kg orally for 4 days): 5.33±0.99 %
Ratio (%) of RFC (mean ± standard error) ([6]; 30 mg/kg orally for 4 days): 6.28±1.27 %
% increase ([6]; 3 mg/kg orally): 403%
% increase ([6]; 30 mg/kg orally): 492%
LD50 ([7]; intraperitoneal): 827 mg/kg
LD50 ([7]; oral): >8,000 mg/kg
NTA (%) (mean ± standard error) ([8]; dilution of serum 64, control 28.0±0.8): 9.5±0.6 %
NTA (%) (mean ± standard error) ([8]; dilution of serum 128, control 20.3±1.1): 8.7±0.5 %
DTH (mm) (mean ± standard error) ([9]; 10 mg/kg orally for 4 days): 0.22±0.02 mm
DTH (mm) (mean ± standard error) ([9]; 100 mg/kg orally for 4 days): 0.42±0.03 mm
DTH (mm) (mean ± standard error) ([9]; 300 mg/kg orally for 4 days): 0.33±0.03 mm
% increase ([9]; 10 mg/kg orally): 5%
% increase ([9]; 100 mg/kg orally): 100%
% increase ([9]; 300 mg/kg orally): 57%
Ratio (%) of S-RFC (mean ± standard error) ([10]; 25 mg/kg orally for 20 days): 55.0±5.2%
Ratio (%) of S-RFC (mean ± standard error) ([10]; 100 mg/kg orally for 20 days): 57.8±3.6 %
% increase ([10]; 25 mg/kg orally): 18%
% increase ([10]; 100 mg/kg orally): 24%

O=P1(N(CCCl)CCCl)NCCCO1 (stereo not drawn) [Cyclophosphamide, cyclophosphamide, reference compound]
% decrease ([1]; cyclophosphamide 20 mg/kg alone): 79%
% decrease ([1]; cyclophosphamide 20 mg/kg alone, listed as cyclophosphamide): about 79%
Ratio (%) of RFC (mean ± standard error) ([1]; cyclophosphamide 20 mg/kg orally alone, control 6.81±1.38): 1.14±0.63%
